For one assay, the system named is saliva RNases. As to the kind of experiment: RNase activity assay: cell line RNA incubated with treated saliva, read on Agilent TapeStation. The class given is biochemical, human. Further details: key: Pass (green) indicating sufficient RNase inactivation; Partial Pass (yellow) indicating partial RNase inactivation; Fail (red) indicating incomplete RNase inactivation. On the procedure: FIG. 27. Example of saliva RNase activity assays assayed on TapeStation High Sensitivity RNA ScreenTapes (5067; Agilent). Results from three independent assays are shown. Lanes 1-3 (left to right) are experimental controls including 500 μg RNA in RNase free water, untreated saliva without added cell line RNA, and untreated saliva incubated with cell line RNA. Lanes labeled “Incomplete RNase Inactivation” contain no ribosomal RNA bands, indicating RNase activity is present. Lanes labeled “Sufficient RNase Inactivation” contain sharp ribosomal bands (similar to RNA in water), indicating RNases have been inactivated. gDNA=genomic DNA.
(§1) To screen for chemical and protein-based reagents that inhibit saliva RNases, we developed an RNase activity assay in which purified cell line RNA was incubated for 30 min at 37° C. with saliva samples after treatment with potential reagents for RNase inhibition (FIG. 2.5.3). After incubation, RNA was purified and analyzed on an Agilent TapeStation. Sharpness of the eukaryotic ribosomal RNA bands (28S and 18S) were compared to determine RNase activity in the presence of various inhibitors. In addition, the Agilent TapeStation calculates an RNA Integrity Score (RIN) as a measure of RNA quality (RIN of 10-fully intact RNA, RIN of 1=fully degraded RNA), however contaminating nucleic acid (e.g., 16S and 23S rRNA from bacteria) interferes with this calculation.
as §1, with “10=fully” for “10-fully”, “calculation. In total, 54 unique reagents, concentrations, and buffer formulations were tested for their ability to inactivate RNases.” for “calculation.”

The subject of another assay is RT-RPA reactions. As to the kind of experiment: RT-RPA interference (compatibility) testing of lysis and RNase inhibitor reagents, agarose gel. Further details: key: Pass (green) indicates that reagents did not interfere with RT-RPA; Partial Pass: Partial pass (yellow) indicates that reagents had partial interference in RT-RPA; Fail (red) indicates reagents completely interfered with RT-RPA reactions. The class given is biochemical. On the procedure:
FIG. 28. Reagent interference testing in RT-RPA. Lysis and RNase inhibitor reagents tested in RT-RPA using cDNA and RNA templates. RT-RPA reactions were prepared with varying concentrations of reagents, as labeled above (final concentrations in a 20 μl RT-RPA reaction are reported). Amplification products were run on a 2% agarose gel and band intensities were compared to control (No added reagent) reactions. Reactions labeled in red contain no reverse transcriptase. The expected size of the CXCL8 amplicon is indicated to the left of the gel. GuHCI=Guanidine hydrochloride, Triton=Triton X-100.
Reagents under consideration for the device were tested for compatibility with RT-RPA at the concentrations expected to be required for lysis. To test for interference, lysis or RNase inhibitor reagents were spiked into RT-RPA reactions with purified cell line RNA or cDNA as a template. Reactions were analyzed by agarose gel for the presence or absence of amplified products. […]

For a further assay, the system named is RT-RPA reaction. As to the kind of experiment: RT-RPA efficiency in the presence of Buffer 20 and Buffer 21. The class given is biochemical. The note with it: 100 mM. As to the method:
FIG. 7. Evaluation of optimized sample treatment and lysis buffer components. (A) RT-RPA efficiency in the presence of Buffer 20 and Buffer 21, using cell line RNA as (+) template and (−) no template control. (B) Optimized early/pre-infection diagnostic sample treatment and lysis tested on 5 individuals. −RT=no reverse transcriptase was included in the RT-RPA reaction, +RT=Superscript IV was added to the RPA reaction at a final concentration of 1 U/μl.
We therefore modified the lysis buffer formulation to Buffer 21 (5 mM TCEP-HCl, 7.5% Tween-20, 0.00167% Digitonin), which removed the guanidine hydrochloride and RNase Inhibitor. […] The present inventors lyophilized Buffer 21 into the selected lysis pad material and processed saliva from five donors through the device (FIG. 7B). This processing included expression of the sample from a collection pad, which pushed the sample through the lysis pad embedded with Buffer 21 and 4 U/μl of mRI, followed by the 10 μm filter, 100 mg of Chelex-100, and 1 μm filter. The resulting sample was used to reconstitute RPA reagents (Twist rehydration buffer and Twist enzymes), and reverse transcriptase and modified RPA primers were added to the reaction.

Assay [1] deals with primer dimers in multiplexed RT-RPA. As to the kind of experiment: Betaine as additive in multiplexed RT-RPA. The assay is classed as biochemical. The settings on record: preliminary experiments. The text has this:
A challenge of multiplexed RT-RPA is an increased tendency to form primer dimers that impact the readout on a lateral flow strip. We have explored the use of betaine as an additive to reduce the occurrence of primer dimers. Betaine can prevent the formation of primer dimers in isothermal amplification by effectively lowering the melting temperature of an oligo sequence. […] Thus, betaine may be an effective additive to reduce primer dimers in RT-RPA reactions in certain embodiments.

[2] abbreviates: 100 mM final in RT-RPA reaction.

Structures can show the parent of a compound that is named as a salt.

The results in this text go back to US20260199902A1, “SYSTEM AND APPARATUS FOR THE HAND-HELD AMPLIFICATION AND DETECTION OF NUCLEIC ACIDS” (Darwin Biosciences, Inc., priority 2022, published 2026).

`O[C@@H](CS)[C@@H](O)CS` [DTT]: the “Inactivation of saliva RNases, Result” value in the assay on saliva RNases (10 mM) is “Fail”. Turning to `O=C(O)CN(CCN(CC(=O)O)CC(=O)O)CC(=O)O` [EDTA], the results for the “Compatibility in RT-RPA, Result” value in the assay with RT-RPA reactions (2 mM final in RT-RPA reaction), in the assay with RT-RPA reactions (6 mM final in RT-RPA reaction) and in the assay on RT-RPA reactions (18 mM final in RT-RPA reaction) were “Pass”, “Partial Pass” and “Fail”, respectively.

As to `N#CS.N=C(N)N` [GTC], the “Compatibility in RT-RPA, Result” value in the assay on RT-RPA reactions (setting [2]) is listed as “Fail”. Regarding `Cl.N=C(N)N` [GuHCl, Guanidine hydrochloride], the “Compatibility in RT-RPA, Result” value in the assay with RT-RPA reactions (setting [2]) is on record as “Pass”; in the assay on RT-RPA reactions (200 mM final in RT-RPA reaction), “Fail”. For the same compound, in the assay with RT-RPA reaction, the “Effect on RT-RPA reaction efficiency” value is “reduces the overall efficiency of the RT-RPA reaction”.

As to `Cl` [HCl, Hydrochloric acid], the “Compatibility in RT-RPA, Result” value in the assay on RT-RPA reactions (5 mM final in RT-RPA reaction) was “Pass”. For `CCCCCCCCCCCCOS(=O)(=O)[O-].[Na+]` [SDS, sodium dodecyl sulfate], in the assay on RT-RPA reactions (0.005% final in RT-RPA reaction), the “Compatibility in RT-RPA, Result” value was “Fail”. Consider `Cl.O=C(O)CCP(CCC(=O)O)CCC(=O)O` [TCEP-HCl], for which the “Compatibility in RT-RPA, Result” value in the assay on RT-RPA reactions (5 mM final in RT-RPA reaction) is listed as “Partial Pass”; in the assay on RT-RPA reactions (10 mM final in RT-RPA reaction), “Fail”. The “Inactivation of saliva RNases, Result” value in the assay on saliva RNases (5 mM and 12.5 mM) is given as “Fail”; with saliva RNases (50 mM), “Pass”. `O=C(O)CCP(CCC(=O)O)CCC(=O)O` [TCEP-neutral]: in the assay with saliva RNases (5 mM and 50 mM), the “Inactivation of saliva RNases, Result” value is on record as “Fail”. Turning to `OCCS` [beta-mercaptoethanol], the “Inactivation of saliva RNases, Result” value in the assay with saliva RNases (143 mM) is recorded as “Fail”. For `C[N+](C)(C)CC(=O)O` [betaine], in assay [1], the Primer noise result is “can reduce primer noise in multiplexed RT-RPA reactions”. Take `C[C@@H]1CC[C@@]2(OC1)O[C@H]1[C@@H](O)[C@H]3[C@@H]4CC[C@H]5C[C@@H](O[C@@H]6O[C@H](CO)[C@H](O[C@@H]7O[C@H](CO)[C@@H](O)[C@H](O[C@@H]8OC[C@@H](O)[C@H](O)[C@H]8O)[C@H]7O[C@@H]7O[C@H](CO)[C@H](O)[C@H](O[C@@H]8O[C@H](CO)[C@@H](O)[C@H](O)[C@H]8O)[C@H]7O)[C@H](O)[C@H]6O)[C@H](O)C[C@]5(C)[C@H]4CC[C@]3(C)[C@H]1[C@@H]2C` [digitonin]: the “Compatibility in RT-RPA, Result” value in the assay on RT-RPA reactions (1% final in RT-RPA reaction) is on record as “Pass”. `CCCCCCCCCCCC(=O)N(C)CC(=O)[O-].[Na+]` [sarkosyl]: the “Compatibility in RT-RPA, Result” value is reported as “Partial Pass” in the assay on RT-RPA reactions (0.01% final in RT-RPA reaction) and “Fail” in the assay on RT-RPA reactions (0.1% final in RT-RPA reaction). For the compound IGEPAL, the “Compatibility in RT-RPA, Result” value in the assay on RT-RPA reactions (0.01%-0.25% final in RT-RPA reaction) is listed as “Partial Pass”.

For Triton X-100, the “Compatibility in RT-RPA, Result” value in the assay with RT-RPA reactions (1% final in RT-RPA reaction) is reported as “Pass”; in the assay on RT-RPA reactions (5%-10% final in RT-RPA reaction), “Partial Pass”.
